This note sets out measurements from patent publication US4094984A, “6-Phenyl-8-bromo-4H-s-triazolo-[3,4C]-thieno-[2,3E]-1,4-diazepines and salts thereof” (Boehringer Ingelheim GmbH, priority 1974, dated 1978).

Some results are limits rather than exact numbers.

For data set [1], the system named is warm-blooded animals, such as mice and rats. Briefly: Standard pharmacodynamic test methods (pentetrazole antagonism, electroshock, conflicting situation, fighting test). Format: in vivo. Particulars: in words. As for the experimental part:
The above-indicated pharmacodynamic properties of the compounds of this invention were ascertained by means of various standard test methods, namely the following:
(§1) 1. Pentetrazole antagonisim [M. I. Gluckmann, Curr. Ther. Res. 7, 721 (1965)]. The median effective dose (ED50) of the test compound is determined which cancels the lethal effect of 125 mgm/kg of pentylenetetrazole in 50% of the test animals; the pentylenetetrazole is administered intraperitoneally one hour after administration of the test compound.
2. Electroshock [J. E. P. Tomann et al, J. Neuro-Physiol. 9, 231 (1946)].
3. Conflicting Situation (Inhibition of Passive Avoidance Test) [J. Geller, Arch. Int. Pharmacodyn. 149,243 (1964)].
4. Fighting Test (Suppression of isolation-induced aggressiveness in mice) [Wirth et al; Arch. Int. Pharmcodyn. 115, 1-31 (1958)].
(§2) Albino mice (NMRI) having a body weight of 20 to 25 gm or albino rats (FW-49) having a body weight of 140 to 200 gm were used as the test animals, and the test compounds were administered perorally as a suspension in olive oil by means of an esophageal sound.

Data set [2] has as its system lethal effect of 125 mgm/kg of pentylenetetrazole. Kind of data set: Pentetrazole antagonism test (anticonvulsive activity). Format: in vivo, Mouse; albino mice (NMRI). The settings on record: po, 1 h; mouse; p.o.; 125 mgm/kg pentylenetetrazole i.p. one hour after test compound; values graphically determined. As to the method:
as §1, §2

Data set [3] in a line: Toxicity, median lethal dose (Litchfield and Wilcoxon). Also noted: species or system Mouse; albino mice (NMRI). Particulars: in vivo, po, mouse; for selectivity ratio: p.o., LD50 over pentylenetetrazole antagonism ED50, read-out: Therap. Index LD50:ED50. As for the experimental part: 5. Toxicity [Litchfield and Wilcoxon, J. Pharmacol. Exp. Therap. 96, 99(1949)]. Determination of median lethal dose (LD50).
as §2

One may read the ED50 as the dose at which the effect has come halfway, by size or by number of responders. The low end stands for greater potency, the high end for weaker potency. In general, LD50 refers to the dose expected to kill half of the subjects tested. Read a high LD50 as lower toxicity. Consider `Cc1nnc2n1-c1sc(Br)cc1C(c1ccccc1Cl)=NC2` [A, 8-bromo-6-(o-chlorophenyl)-1-methyl-4H-s-triazolo [3,4c]thieno[2,3e]1,4-diazepine], for which the “effectiveness among the compounds of formula I” value in data set [1] was “particularly effective”. This compound had an ED50 in data set [2] of 0.07 mg/kg. In addition, in data set [3], the LD50 was more than 3500 mg/kg and the selectivity ratio is more than 50000.

In data set [2], `Cc1nnc2n1-c1sc(Br)cc1C(c1ccccc1F)=NC2` [B, 8-bromo-6-(o-fluorophenyl)-1-methyl-4H-s-triazolo[3,4c]thieno[2,3e]1,4-diazepine] came in with a 50% effective dose (ED50) of 0.15 mg/kg. Also, in data set [3], the LD50 was more than 3300 mg/kg and the selectivity ratio was more than 22000.

Consider `Cc1nnc2n1-c1sc(Br)cc1C(c1ccccc1Br)=NC2` [C, 8-bromo-6-(o-bromophenyl)-1-methyl-4H-s-triazolo[3,4c]thieno[2,33]1,4-diazepine], for which the “effectiveness among the compounds of formula I” value in data set [1] is “particularly effective”. The 50% effect level in data set [2] (ED50) was put at a dose of 0.12 mg/kg. For the same compound, in data set [3], the LD50 was more than 3500 mg/kg and the selectivity ratio is more than 29200.

Consider `Cc1nnc2n1-c1sc(Br)cc1C(c1ccccc1)=NC2` [D, 8-bromo-6-phenyl-1-methyl-4H-s-triazolo[3,4]thieno[2,3e]1,4-diazepine], for which, in data set [2], it took a dose of 0.8 mg/kg to reach the 50% effect level (ED50).

With `CCc1cc2c(s1)-n1c(C)nnc1CN=C2c1ccccc1Cl` [E, 8-ethyl-6-(o-chlorophenyl)-1-methyl-4H-s-triazolo[3,4c]thieno[2,3e]-1,4-diazepine, reference compound], it took a dose of 0.7 mg/kg to reach the 50% effect level in data set [2] (ED50). Further, in data set [3], the LD50 is 3070 mg/kg and the selectivity ratio turned out to be 4390.

In data set [2], `Cc1nnc2n1-c1sc(Cl)cc1C(c1ccccc1Cl)=NC2` [F, 8-chloro-6-(o-chlorophenyl)-1-methyl-4H-s-triazolo[3,4c]thieno[2,3e]1,4-diazepine, reference compound] showed an ED50 of 1 mg/kg. Moreover, in data set [3], the LD50 stood at 2300 mg/kg and the selectivity ratio was 2300.

`Cc1nnc2n1-c1sc(Cl)cc1C(c1ccccc1Br)=NC2` [G, 8-chloro-6-(o-bromophenyl)-1-methyl-4H-s-triazolo[3,4c]thieno[2,3e]1,4-diazepine, reference compound] displayed an ED50 in data set [2] of 0.7 mg/kg. In data set [3], the LD50 worked out at 2200 mg/kg and the selectivity ratio stood at 3140.

Compound `Cc1nnc2n1-c1sc(Cl)cc1C(c1ccccc1)=NC2` [H, 8-chloro-6-phenyl-1-methyl-4H-s-triazolo[3,4c]thieno[2,3e]1,4-diazepine, reference compound] gave an ED50 in data set [2] of 3 mg/kg.
